Measured values taken from ChEMBL document CHEMBL1629414, “A neuroprotective sulfone of marine origin and the in vivo anti-inflammatory activity of an analogue” (Eur J Med Chem, 2010).
Activity calls are given as the source filed them. No cut-off for these calls is given here.

How the values were obtained:
RAW264.7 [1] = test: Antiinflammatory activity in mouse RAW264.7 cells assessed as inhibition of LPS-induced expression of iNOS after treated 10 mins before LPS challenge measured after 16 hrs by Western blotting; format: functional, cell-based
Rattus norvegicus [2] = test: Antinociceptive activity in intrathecally dosed chronic constriction injury neuropathic pain Wistar rat model assessed as reduction of paw withdrawal latency measured up to 120 mins; format: functional
RAW264.7 [3] = test: Antiinflammatory activity in mouse RAW264.7 cells assessed as inhibition of LPS-induced expression of COX-2 treated 10 mins before LPS challenge measured after 16 hrs by Western blotting; format: functional, cell-based
Rattus norvegicus [4] = test: Toxicity in chronic constriction injury neuropathic pain Wistar rat model assessed as effect on locomotor activity at 0.1 to 5 ug, administered intrathecally; format: organism-based; settings: in vivo, icv_or_intrathecal
Rattus norvegicus [5] = test: Antinociceptive activity in chronic constriction injury neuropathic pain Wistar rat model assessed as reduction of paw withdrawal latency at 0.1 to 5 ug, administered intrathecally after 20 mins; format: functional, organism-based
Rattus norvegicus [6] = test: Protection against encephalomyelitis-induced clinical signs in Lewis rat preimmunized with Freund's complete adjuvant at 30 ug/kg, administered intrathecally bid for 5 days from day 7 after immunization; format: functional, organism-based
Rattus norvegicus [7] = test: Antinociceptive activity in chronic constriction injury neuropathic pain Wistar rat model assessed as reduction of paw withdrawal latency at 5 ug, administered intrathecally after 20 to 120 mins; format: functional, organism-based
Rattus norvegicus [8] = test: Toxicity in Lewis rat assessed as neurological deffects at 30 ug/kg, administered intrathecally bid for 5 days; format: organism-based; settings: in vivo, icv_or_intrathecal, 0.03 mg/kg, 120 h
RAW264.7 [9] = test: Cytotoxicity against mouse RAW264.7 cells assessed as inhibition of beta-actin expression at 50 uM by Western blotting; format: cell-based; settings: raw264.7, 50 µM
Rattus norvegicus [10] = test: Antiatherosclerotic activity against balloon injury-induced angioplasty in Wistar rat assessed as inhibition of neointimal proliferation at 3 mg/kg/day, sc relative to control; format: functional; design: scale not given: the % may be the effect or the level left; settings: route subcutaneous
SH-SY5Y [11] = test: Neuroprotective activity in human SH-SY5Y cells assessed as protection against 6-OHDA-induced cytotoxicity at 1 uM pretreated 1 hr before 6-OHDA challenge measured after 15 hrs by Alamar blue assay; format: functional, cell-based
[12] = Solubility of the compound in water; format: physicochemical
SH-SY5Y [13] = test: Neuroprotective activity in human SH-SY5Y cells assessed as protection against 6-OHDA-induced cytotoxicity pretreated 1 hr before 6-OHDA challenge measured after 15 hrs by Alamar blue assay; format: functional
RAW264.7 [14] = test: Cytotoxicity against mouse RAW264.7 cells assessed as inhibition of beta-actin expression at 30 uM by Western blotting; format: cell-based; settings: raw264.7, 30 µM
RAW264.7 [15] = test: Antiinflammatory activity in mouse RAW264.7 cells assessed as inhibition of LPS-induced expression of COX2 at 10 uM treated 10 mins before LPS challenge measured after 16 hrs by Western blotting relative to control; format: functional; design: scale not given: the % may be the effect or the level left
RAW264.7 [16] = test: Antiinflammatory activity in mouse RAW264.7 cells assessed as inhibition of LPS-induced expression of iNOS at 10 uM treated 10 mins before LPS challenge measured after 16 hrs by Western blotting relative to control; format: functional; design: scale not given: the % may be the effect or the level left

Molecule `CC(=O)CCS(=O)(=O)CCO` has an IC50 (RAW264.7 [1]) of 3.6 µM, an ED50 (Rattus norvegicus [2]) of 0.75 µg and an IC50 (RAW264.7 [3]) of 32.1 µM. For the same molecule, the Activity (Rattus norvegicus [4]) was “Non-toxic”, the Activity (Rattus norvegicus [5]) was “Active” and the Activity (Rattus norvegicus [6]) was “Active”. For the same molecule, the Activity (Rattus norvegicus [7]) was “Active”, the Activity (Rattus norvegicus [8]) was “Non-toxic” and the Activity (RAW264.7 [9]) was “Toxic”. For the same molecule, the Activity (Rattus norvegicus [10]) was 98.1% and the Activity (SH-SY5Y [11]) was “inactive”.
For `C=CS(=O)(=O)CCC(C)=O` [AUSTRASULFONE], the solubility [12] was > 50 mg/mL, the Activity (SH-SY5Y [13]) was “Dose-dependent effect” and the EC50 (SH-SY5Y [13]; read-out: ED50 (the source's name)) was 0.011 µM. The Activity (RAW264.7 [14]) was “Toxic”.
`CC(=O)CCSCCO` showed an Activity (RAW264.7 [15]) of 91.2% and an Activity (RAW264.7 [16]) of 59.5%.
